Test results from the NIST ThermoML archive (doi:10.1021/je900598y).
± gives the expanded uncertainty stated by the source.

Legend:
[1] = 298.15 K; 101.33 kPa; Liquid
[2] = excess molar enthalpy (molar enthalpy of mixing); xn = mol fraction of the nth substance listed; conditions: 298.15 K, Liquid, Calvet calorimetry

CCCCCC(=O)OC(=O)CCCCC [caproic anhydride]
Conditions	mass density [kg/m3]
[1]	923.96 ± 0.42

CCCCCC(=O)OC(=O)CCCCC [caproic anhydride] + CCCCCCCCCCCC
[2]
Conditions	excess molar enthalpy [kcal/mol]
x1 = 0.0213	0.0366 ± 0.000574
x1 = 0.0417	0.0668 ± 0.000932
x1 = 0.0612	0.0922 ± 0.00124
x1 = 0.08	0.114 ± 0.00151
x1 = 0.098	0.133 ± 0.00174
x1 = 0.1154	0.15 ± 0.00194
x1 = 0.1349	0.166 ± 0.00215
x1 = 0.1536	0.181 ± 0.00232
x1 = 0.1714	0.194 ± 0.00239
x1 = 0.1886	0.204 ± 0.00263
x1 = 0.205	0.214 ± 0.00263
x1 = 0.2208	0.222 ± 0.00287
x1 = 0.2374	0.23 ± 0.00287
x1 = 0.2533	0.236 ± 0.00311
x1 = 0.2625	0.244 ± 0.00311
x1 = 0.2688	0.247 ± 0.00311
x1 = 0.2754	0.249 ± 0.00311
x1 = 0.2824	0.252 ± 0.00311
x1 = 0.2897	0.254 ± 0.00311
x1 = 0.2974	0.257 ± 0.00335
x1 = 0.3056	0.26 ± 0.00335
x1 = 0.3134	0.262 ± 0.00335
x1 = 0.3215	0.264 ± 0.00335
x1 = 0.3301	0.266 ± 0.00335
x1 = 0.3392	0.268 ± 0.00335
x1 = 0.3471	0.27 ± 0.00335
x1 = 0.3555	0.272 ± 0.00335
x1 = 0.3642	0.273 ± 0.00335
x1 = 0.3733	0.275 ± 0.00359
x1 = 0.383	0.276 ± 0.00359
x1 = 0.3931	0.278 ± 0.00359
x1 = 0.4023	0.279 ± 0.00359
x1 = 0.412	0.279 ± 0.00359
x1 = 0.4222	0.28 ± 0.00359
x1 = 0.4329	0.28 ± 0.00359
x1 = 0.4442	0.281 ± 0.00359
x1 = 0.456	0.281 ± 0.00359
x1 = 0.4672	0.281 ± 0.00359
x1 = 0.4789	0.28 ± 0.00359
x1 = 0.4913	0.279 ± 0.00359
x1 = 0.5043	0.278 ± 0.00359
x1 = 0.5162	0.276 ± 0.00359
x1 = 0.5286	0.275 ± 0.00359
x1 = 0.5417	0.272 ± 0.00335
x1 = 0.5554	0.27 ± 0.00335
x1 = 0.5698	0.267 ± 0.00335
x1 = 0.585	0.263 ± 0.00335
x1 = 0.5987	0.259 ± 0.00335
x1 = 0.613	0.255 ± 0.00311
x1 = 0.628	0.251 ± 0.00311
x1 = 0.6438	0.245 ± 0.00311
x1 = 0.6604	0.239 ± 0.00311
x1 = 0.6778	0.232 ± 0.00287
x1 = 0.6941	0.224 ± 0.00287
x1 = 0.7112	0.217 ± 0.00263
x1 = 0.7291	0.208 ± 0.00263
x1 = 0.748	0.198 ± 0.00263
x1 = 0.7678	0.187 ± 0.00239
x1 = 0.7854	0.176 ± 0.00225
x1 = 0.8039	0.166 ± 0.00215
x1 = 0.8233	0.151 ± 0.00196
x1 = 0.8436	0.137 ± 0.00177
x1 = 0.8649	0.121 ± 0.00158
x1 = 0.8874	0.103 ± 0.00136
x1 = 0.9079	0.086 ± 0.00115
x1 = 0.9293	0.0676 ± 0.000932
x1 = 0.9517	0.0472 ± 0.000693
x1 = 0.9753	0.0247 ± 0.00043

CCCCCC(=O)OC(=O)CCCCC [caproic anhydride] + CCCCCCCCCCCCCC
[2]
Conditions	excess molar enthalpy [kcal/mol]
x1 = 0.0274	0.0479 ± 0.000693
x1 = 0.0533	0.0863 ± 0.00117
x1 = 0.0779	0.118 ± 0.00155
x1 = 0.1012	0.144 ± 0.00186
x1 = 0.1234	0.166 ± 0.00213
x1 = 0.1445	0.185 ± 0.00237
x1 = 0.1681	0.203 ± 0.00263
x1 = 0.1904	0.219 ± 0.00287
x1 = 0.2115	0.232 ± 0.00287
x1 = 0.2316	0.247 ± 0.00311
x1 = 0.2372	0.25 ± 0.00311
x1 = 0.2431	0.253 ± 0.00311
x1 = 0.2493	0.256 ± 0.00311
x1 = 0.2559	0.259 ± 0.00335
x1 = 0.2628	0.263 ± 0.00335
x1 = 0.2691	0.266 ± 0.00335
x1 = 0.2757	0.269 ± 0.00335
x1 = 0.2826	0.272 ± 0.00335
x1 = 0.2899	0.275 ± 0.00359
x1 = 0.2975	0.278 ± 0.00359
x1 = 0.3056	0.281 ± 0.00359
x1 = 0.3129	0.284 ± 0.00359
x1 = 0.3204	0.286 ± 0.00359
x1 = 0.3284	0.289 ± 0.00359
x1 = 0.3368	0.291 ± 0.00359
x1 = 0.3456	0.294 ± 0.00359
x1 = 0.3548	0.296 ± 0.00382
x1 = 0.363	0.298 ± 0.00382
x1 = 0.3715	0.3 ± 0.00382
x1 = 0.3805	0.301 ± 0.00382
x1 = 0.3899	0.303 ± 0.00382
x1 = 0.3998	0.305 ± 0.00382
x1 = 0.4012	0.306 ± 0.00382
x1 = 0.4103	0.307 ± 0.00382
x1 = 0.4199	0.308 ± 0.00382
x1 = 0.4299	0.309 ± 0.00382
x1 = 0.4404	0.31 ± 0.00382
x1 = 0.4514	0.31 ± 0.00382
x1 = 0.463	0.31 ± 0.00382
x1 = 0.4734	0.31 ± 0.00382
x1 = 0.4843	0.31 ± 0.00382
x1 = 0.4958	0.309 ± 0.00382
x1 = 0.5077	0.308 ± 0.00382
x1 = 0.5203	0.307 ± 0.00382
x1 = 0.5335	0.305 ± 0.00382
x1 = 0.5453	0.303 ± 0.00382
x1 = 0.5575	0.3 ± 0.00382
x1 = 0.5703	0.297 ± 0.00382
x1 = 0.5838	0.294 ± 0.00359
x1 = 0.5979	0.29 ± 0.00359
x1 = 0.6126	0.286 ± 0.00359
x1 = 0.6261	0.281 ± 0.00359
x1 = 0.6401	0.277 ± 0.00359
x1 = 0.6548	0.271 ± 0.00335
x1 = 0.6702	0.265 ± 0.00335
x1 = 0.6863	0.258 ± 0.00335
x1 = 0.7032	0.249 ± 0.00311
x1 = 0.7185	0.242 ± 0.00311
x1 = 0.7345	0.232 ± 0.00287
x1 = 0.7512	0.223 ± 0.00287
x1 = 0.7686	0.212 ± 0.00263
x1 = 0.7869	0.2 ± 0.00263
x1 = 0.8038	0.188 ± 0.00239
x1 = 0.8214	0.175 ± 0.00225
x1 = 0.8397	0.16 ± 0.00206
x1 = 0.8589	0.145 ± 0.00189
x1 = 0.879	0.127 ± 0.00165
x1 = 0.9001	0.108 ± 0.00143
x1 = 0.9185	0.0894 ± 0.0012
x1 = 0.9376	0.07 ± 0.000956
x1 = 0.9575	0.0488 ± 0.000717
x1 = 0.9783	0.0255 ± 0.00043

CCCCCC(=O)OC(=O)CCCCC [caproic anhydride] + CCCCCCCCCCCCCCCC
[2]
Conditions	excess molar enthalpy [kcal/mol]
x1 = 0.0307	0.0555 ± 0.000789
x1 = 0.0596	0.0993 ± 0.00131
x1 = 0.0868	0.135 ± 0.00174
x1 = 0.1125	0.163 ± 0.0021
x1 = 0.1368	0.189 ± 0.00239
x1 = 0.1597	0.209 ± 0.00263
x1 = 0.1815	0.227 ± 0.00287
x1 = 0.2022	0.242 ± 0.00311
x1 = 0.2219	0.255 ± 0.00311
x1 = 0.2406	0.266 ± 0.00335
x1 = 0.2627	0.278 ± 0.00359
x1 = 0.282	0.289 ± 0.00359
x1 = 0.2889	0.293 ± 0.00359
x1 = 0.2962	0.296 ± 0.00382
x1 = 0.3038	0.3 ± 0.00382
x1 = 0.3118	0.303 ± 0.00382
x1 = 0.3202	0.307 ± 0.00382
x1 = 0.3291	0.31 ± 0.00382
x1 = 0.3373	0.313 ± 0.00406
x1 = 0.346	0.316 ± 0.00406
x1 = 0.355	0.318 ± 0.00406
x1 = 0.3646	0.321 ± 0.00406
x1 = 0.3747	0.324 ± 0.00406
x1 = 0.3853	0.326 ± 0.00406
x1 = 0.3954	0.329 ± 0.00406
x1 = 0.4059	0.331 ± 0.00406
x1 = 0.417	0.333 ± 0.0043
x1 = 0.4262	0.333 ± 0.0043
x1 = 0.4357	0.334 ± 0.0043
x1 = 0.4457	0.335 ± 0.0043
x1 = 0.4562	0.336 ± 0.0043
x1 = 0.4671	0.336 ± 0.0043
x1 = 0.4787	0.336 ± 0.0043
x1 = 0.4907	0.336 ± 0.0043
x1 = 0.5034	0.335 ± 0.0043
x1 = 0.5144	0.334 ± 0.0043
x1 = 0.5258	0.333 ± 0.0043
x1 = 0.5377	0.331 ± 0.00406
x1 = 0.5502	0.33 ± 0.00406
x1 = 0.5633	0.328 ± 0.00406
x1 = 0.5771	0.325 ± 0.00406
x1 = 0.5893	0.322 ± 0.00406
x1 = 0.602	0.318 ± 0.00406
x1 = 0.6153	0.314 ± 0.00406
x1 = 0.6292	0.31 ± 0.00382
x1 = 0.6437	0.304 ± 0.00382
x1 = 0.6589	0.299 ± 0.00382
x1 = 0.6721	0.293 ± 0.00359
x1 = 0.6857	0.286 ± 0.00359
x1 = 0.6999	0.279 ± 0.00359
x1 = 0.7147	0.271 ± 0.00335
x1 = 0.7287	0.262 ± 0.00335
x1 = 0.7433	0.254 ± 0.00311
x1 = 0.7584	0.244 ± 0.00311
x1 = 0.7742	0.233 ± 0.00287
x1 = 0.7907	0.221 ± 0.00287
x1 = 0.8078	0.208 ± 0.00263
x1 = 0.8233	0.196 ± 0.00239
x1 = 0.8393	0.181 ± 0.00232
x1 = 0.856	0.166 ± 0.00213
x1 = 0.8733	0.15 ± 0.00194
x1 = 0.8914	0.132 ± 0.00172
x1 = 0.9102	0.112 ± 0.00148
x1 = 0.9269	0.0931 ± 0.00124
x1 = 0.9411	0.0725 ± 0.001
x1 = 0.962	0.0493 ± 0.000717
x1 = 0.9807	0.0265 ± 0.000454
